Target: T1, CCR4 (Homo sapiens, UniProt P51679)
T1 construct: CEM Cells Endogenous Express CCR4; endogenous in cells; host or cells: CEM cells
T1 sequence (P51679 1-360): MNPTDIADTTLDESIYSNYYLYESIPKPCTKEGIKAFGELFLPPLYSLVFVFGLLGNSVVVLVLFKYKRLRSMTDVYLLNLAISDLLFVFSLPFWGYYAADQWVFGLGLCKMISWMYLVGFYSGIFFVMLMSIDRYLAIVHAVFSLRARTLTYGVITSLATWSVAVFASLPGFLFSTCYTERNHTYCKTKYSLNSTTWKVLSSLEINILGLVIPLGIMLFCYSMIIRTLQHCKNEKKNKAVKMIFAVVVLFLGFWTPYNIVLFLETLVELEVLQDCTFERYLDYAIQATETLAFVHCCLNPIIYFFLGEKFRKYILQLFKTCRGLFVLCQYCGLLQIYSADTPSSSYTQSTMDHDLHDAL
Experiment: CEM cell chemotaxis (migration) assay to CCL22 (MDC) in 100% Fetal Bovine Serum (FBS)
Format: cell-based
Conditions: CEM cells in 100% FBS with 1% HEPEs; recombinant human CCL22 0.1 nM; 37° C. 60 minutes
Text: CEM Cells Endogenous Express CCR4
A chemotaxis assay can be used to determine the efficacy of potential receptor antagonists at blocking the migration mediated through chemokine receptors, such as CCR4. This assay is routinely performed using the ChemoTX® microchamber system with a 5 μm pore-sized polycarbonate membrane.
FBS: CEM Cells are collected by centrifugation at 400×g at room temperature, then suspended at 5 million/ml in 100% Fetal Bovine Serum (FBS) with 1% HEPEs. The compound being tested is serially diluted from a maximum final concentration of 10 μM (or an equivalent volume of its solvent (DMSO)) and is then added to the cell/buffer mixture. Separately, recombinant human CCL22 (MDC) at its EC50 concentration (0.1 nM) is placed in the lower wells of the ChemoTX® plate. The 5-μm (pore size) polycarbonate membrane was placed onto the plate, and 20 μL of the cell/compound mixture is transferred onto each well of the membrane. The plates are incubated at 37° C. for 60 minutes, after which the polycarbonate membranes are removed and 5 μl of the DNA-intercalating dye CyQUANT (Invitrogen, Carlsbad, CA) is added to the lower wells. The amount of fluorescence, corresponding to the number of migrated cells, is measured using a Spectrafluor Plus plate reader (TECAN, San Jose, CA).

C[C@@H](Nc1nc(N2CC[C@H](NC(=O)CCN(C)C)[C@@H](O)C2)ncc1Cl)c1ccc(Cl)cc1Cl [Example 1.245]
IC50: < 0.1 µM

C[C@@H](Nc1nc(N2CCN(C(=O)C3CNC(=O)CN3)CC2)ncc1Cl)c1ccc(Cl)cc1Cl (stereo partly drawn) [Example 1.209]
IC50: 0.1 to 1 µM

C[C@@H](Nc1nc(N2CCN(C(=O)[C@H]3CC4(CC4)C(=O)N3)CC2)ncc1Cl)c1ccc(Cl)cc1Cl [Example 1.195]
IC50: 0.1 to 1 µM

C[C@@H](Nc1nc(N2CCN(C(=O)[C@H]3CCCN3)CC2)ncc1C#N)c1ccc(Cl)cc1Cl [Example 1.207]
IC50: 0.1 to 1 µM

COc1cnc(N2CCN(C(=O)[C@H]3CCN(C)C3)CC2)nc1N[C@H](C)c1ccc(Cl)cc1Cl [Example 1.189]
IC50: < 0.1 µM

C[C@@H](Nc1nc(N2CCN(C(=O)[C@H]3CCC(=O)N3C)CC2)ncc1Cl)c1ccc(Cl)cc1Cl [Example 1.239]
IC50: < 0.1 µM

C[C@@H](Nc1nc(N2CC[C@H](NC(=O)[C@H]3CN(C)C(=O)N3)[C@@H](O)C2)ncc1Cl)c1ccc(Cl)cc1Cl [Example 1.218]
IC50: > 1 µM

C[C@@H](Nc1nc(N2CCN(C(=O)C3(N)CCOCC3)CC2)ncc1Cl)c1ccc(Cl)cc1Cl [Example 1.205]
IC50: 0.1 to 1 µM

C[C@@H](Nc1nc(N2CCN(C(=O)[C@H]3CCC(=O)N3)[C@H](CO)C2)ncc1Cl)c1ccc(Cl)cc1Cl [Example 1.109]
IC50: < 0.1 µM

C[C@@H](Nc1nc(N2CCN(C(=O)[C@H]3CCC(=O)N3)CC2)nc(C(F)(F)F)c1Cl)c1ccc(Cl)cc1Cl [Example 1.261]
IC50: < 0.1 µM

C[C@@H](Nc1nc(N2CCN(C(=O)[C@H]3CCC(=O)N3)CC2)ncc1N)c1ccc(Cl)cc1Cl [Example 1.095]
IC50: < 0.1 µM

C[C@@H](Nc1nc(N2CC[C@H](NC(=O)[C@H]3CCCN3)[C@@H](O)C2)ncc1F)c1ccc(Cl)cc1Cl [Example 1.107]
IC50: < 0.1 µM

C[C@@H](Nc1nc(N2CCN(C(=O)[C@@]3(C)CCC(=O)N3)CC2)ncc1Cl)c1ccc(Cl)cc1Cl [Example 1.244]
IC50: > 1 µM

C[C@@H](Nc1nc(N2CCN(C(=O)[C@H]3C[C@H](F)CN3)CC2)ncc1Cl)c1ccc(Cl)cc1Cl [Example 1.142]
IC50: < 0.1 µM

C[C@@H](Nc1nc(N2CCN(C(=O)[C@@H]3CCC(=O)N3)CC2)ncc1Cl)c1ccc(Cl)cc1Cl [Example 1.144]
IC50: 0.1 to 1 µM

COCc1cnc(N2CCN(C(=O)[C@H]3CCCN3)CC2)nc1N[C@H](C)c1ccc(Cl)cc1Cl [Example 1.101]
IC50: < 0.1 µM

C[C@@H](Nc1nc(N2CCC(C(=O)N[C@H]3CCNC3=O)CC2)ncc1Cl)c1ccc(Cl)cc1Cl [Example 1.233]
IC50: > 1 µM

C[C@H]1CC[C@H](C(=O)N[C@H]2CCN(c3ncc(Cl)c(N[C@H](C)c4ccc(Cl)cc4Cl)n3)C[C@@H]2F)N1 [Example 1.087]
IC50: < 0.1 µM

COc1cnc(N2CCN(C(=O)C[C@H]3CCCN3)CC2)nc1N[C@H](C)c1ccc(Cl)cc1Cl [Example 1.164]
IC50: < 0.1 µM

C[C@@H](Nc1nc(N2CCN(C(=O)[C@H]3CCC(=O)N3)CC2)ncc1Cl)c1c(F)cc(Cl)cc1Cl [Example 1.198]
IC50: < 0.1 µM

C[C@@H](Nc1nc(N2CCN(C(=O)[C@H]3CN(C)C(=O)N3)CC2)ncc1F)c1ccc(Cl)cc1Cl [Example 1.103]
IC50: < 0.1 µM

COc1cnc(N2CCN(C(=O)[C@H]3CCC(=O)N3)CC2)nc1N[C@H](C)c1ccc(Cl)cc1Cl [Example 1.188]
IC50: < 0.1 µM

COc1cnc(N2CCN(C(=O)[C@H]3CCNC3)CC2)nc1N[C@H](C)c1ccc(Cl)cc1Cl [Example 1.163]
Serum IC50 (FBS): + ++

CC(C)N1CCCC(C2CCN(c3ncc(Cl)c(N[C@H](C)c4ccc(Cl)cc4Cl)n3)CC2)C1 (stereo partly drawn) [Example 1.214]
IC50: < 0.1 µM

C[C@@H](Nc1nc(N2CCN(C(=O)[C@H]3CCCN3CCC(F)(F)F)CC2)ncc1Cl)c1ccc(Cl)cc1Cl [Example 1.219]
IC50: 0.1 to 1 µM

C[C@@H](Nc1nc(N2CCN(C(=O)[C@@]3(C)CCCN3)CC2)ncc1Cl)c1ccc(Cl)cc1Cl [Example 1.210]
IC50: < 0.1 µM

C[C@@H](Nc1nc(N2CCN(C(=O)[C@H]3CCC(=O)N3)CC2)ncc1F)c1ccc(Cl)cc1F [Example 1.086]
IC50: < 0.1 µM

C[C@@H](Nc1nc(N2CC[C@H](NC(=O)[C@H]3CCC(=O)N3)[C@@H](O)C2)ncc1Cl)c1ccc(Cl)cc1Cl [Example 1.093]
IC50: 0.1 to 1 µM

C[C@@H](Nc1nc(N2CCN(C(=O)[C@H]3CCC(=O)N3)CC2)ncc1Cl)c1cc(F)c(Cl)cc1Cl [Example 1.202]
IC50: < 0.1 µM

C[C@@H](Nc1nc(N2CCN(C(=O)[C@H]3CCCNC3)CC2)ncc1Cl)c1ccc(Cl)cc1Cl [Example 1.201]
IC50: < 0.1 µM

COc1cnc(N2CCN(C(=O)C34CC(CN3)C4)CC2)nc1N[C@H](C)c1ccc(Cl)cc1Cl [Example 1.121]
IC50: < 0.1 µM

COc1cnc(N2CCN(C(=O)[C@H]3CCCN3C)CC2)nc1N[C@H](C)c1ccc(Cl)cc1Cl [Example 1.156]
IC50: < 0.1 µM

C[C@@H](Nc1nc(N2CCC([C@H]3CCCN(CCC(=O)O)C3)CC2)ncc1Cl)c1ccc(Cl)cc1Cl [Example 1.221]
IC50: < 0.1 µM

C[C@@H](Nc1nc(N2CC[C@H](NC(=O)[C@H]3CCCN3)[C@H](O)C2)ncc1OC(F)F)c1ccc(Cl)cc1Cl [Example 1.120]
IC50: < 0.1 µM

Cc1nc(N2CCN(C(=O)[C@H]3CCC(=O)N3)[C@H](C)C2)nc(N[C@H](C)c2ccc(Cl)cc2Cl)c1Cl [Example 1.105]
IC50: < 0.1 µM

C[C@@H](Nc1nc(N2CCC(O[C@@H]3CCNC3)CC2)ncc1Cl)c1ccc(Cl)cc1Cl [Example 1.211]
IC50: < 0.1 µM

C[C@@H](Nc1nc(N2CCN(C(=O)[C@H]3CCC(=O)N3)CC2)ncc1C1CC1)c1ccc(Cl)cc1Cl [Example 1.098]
IC50: 0.1 to 1 µM

COc1cnc(N2CCN(C(=O)C3CCN(C)CC3)CC2)nc1N[C@H](C)c1ccc(Cl)cc1Cl [Example 1.165]
IC50: < 0.1 µM

C[C@@H](Nc1nc(N2CCN(C(=O)C[C@@H]3CCCN3C)CC2)ncc1Cl)c1ccc(Cl)cc1Cl [Example 1.169]
IC50: < 0.1 µM

C[C@H]1CC[C@H](C(=O)N[C@H]2CCN(c3ncc(OC(F)F)c(N[C@H](C)c4ccc(Cl)cc4Cl)n3)C[C@@H]2O)N1 [Example 1.119]
IC50: < 0.1 µM

C[C@@H](Nc1nc(N2CC[C@H](NC(=O)[C@H]3CCCN3C)[C@@H](O)C2)ncc1Cl)c1ccc(Cl)cc1Cl [Example 1.224]
IC50: < 0.1 µM

C[C@@H](Nc1nc(N2CC[C@H](NC(=O)[C@H]3CCCCN3)[C@@H](O)C2)ncc1Cl)c1ccc(Cl)cc1Cl [Example 1.124]
IC50: < 0.1 µM

C[C@@H](Nc1nc(N2CC[C@H](NC(=O)[C@H]3CCC(C)(C)N3)[C@@H](O)C2)ncc1Cl)c1ccc(Cl)cc1Cl [Example 1.123]
IC50: < 0.1 µM

C[C@@H]1CN(c2ncc(Cl)c(N[C@H](C)c3ccc(Cl)cc3Cl)n2)CCN1C(=O)[C@H]1CCC(=O)N1 [Example 1.112]
IC50: < 0.1 µM

C[C@@H](Nc1nc(N2CCN(C(=O)[C@H]3CCN(C)C3)CC2)ncc1C(C)(C)O)c1ccc(Cl)cc1Cl [Example 1.154]
IC50: 0.1 to 1 µM

C[C@@H](Nc1nc(N2CCN(C(=O)[C@H]3CCC(C)(C)N3)CC2)ncc1Cl)c1ccc(Cl)cc1Cl [Example 1.225]
IC50: < 0.1 µM

C[C@@H](Nc1nc(N2CC[C@H](NC(=O)[C@H]3CCC(=O)N3)[C@@H](F)C2)ncc1Cl)c1ccc(Cl)cc1Cl [Example 1.106]
IC50: 0.1 to 1 µM

C[C@@H](Nc1nc(N2CCN(C(=O)[C@H]3COC(=O)N3)CC2)ncc1Cl)c1ccc(Cl)cc1Cl [Example 1.122]
IC50: < 0.1 µM

C[C@@H](Nc1nc(N2CCN(C(=O)[C@H]3CCC(=O)N3)CC2)ncc1F)c1ccc(F)cc1Cl [Example 1.085]
IC50: < 0.1 µM

COc1cnc(N2CCN(C(=O)C[C@@H]3CCCN3C)CC2)nc1N[C@H](C)c1ccc(Cl)cc1Cl [Example 1.168]
IC50: < 0.1 µM

C[C@@H](Nc1nc(N2CCC(NC(=O)[C@H]3CN(C)C(=O)N3)CC2)ncc1Cl)c1ccc(Cl)cc1Cl [Example 1.223]
IC50: > 1 µM

C[C@@H](Nc1nc(N2CCN(C(=O)C(N)(CO)CCl)CC2)ncc1Cl)c1ccc(Cl)cc1Cl (stereo partly drawn) [Example 1.126]
IC50: 0.1 to 1 µM

C[C@@H](Nc1nc(N2CCN(C(=O)[C@H]3CCC(=O)N3)CC2)ncc1OC(F)F)c1ccc(Cl)cc1Cl [Example 1.171]
IC50: < 0.1 µM

C[C@@H](Nc1nc(N2CCN(C(=O)[C@H]3CNC(=O)N3)CC2)ncc1Cl)c1ccc(Cl)cc1Cl [Example 1.222]
IC50: < 0.1 µM

C[C@@H](Nc1nc(N2CCC(OC3CCN(C)C3)CC2)ncc1Cl)c1ccc(Cl)cc1Cl (stereo partly drawn) [Example 1.241]
IC50: < 0.1 µM

COc1cnc(N2CCN(C(=O)CCN(C)C)CC2)nc1N[C@H](C)c1ccc(Cl)cc1Cl [Example 1.187]
IC50: < 0.1 µM

C[C@@H](Nc1nc(N2CCN(C(=O)[C@H]3CCC(=O)N3)CC2)ncc1F)c1ccc(Cl)cc1Cl [Example 1.117]
IC50: < 0.1 µM
